{
  "source": "patent US20120004188A1",
  "about": "“USE OF RANOLAZINE FOR TREATING PULMONARY HYPERTENSION” (Gilead Sciences, Inc., priority 2010, published 2012)",
  "key": {"[1]": {"tested_on": "MCT-induced PAH and RV dysfunction", "test": "Monocrotaline (MCT)-induced chronic PAH and RV dysfunction model in rats", "type": "in vivo, Male Sprague-Dawley rats", "details": "for RV hypertrophy, RV(milligrams)/LV(milligrams) / plasma BNP levels / decrease in RV ejection fraction: day 28; for RV hypertrophy, RV(milligrams)/LV(milligrams): MCT 0.55±0.04; for plasma BNP levels: MCT 590±106, control 170±90; for decrease in RV ejection fraction: MCT −47±7%; for pulmonary systolic pressure: MCT 84±7, control 29±1; for RV systolic pressure: MCT 86±7, control 26±1", "excerpt": "As is discussed in detail hereinabove, ranolazine is an anti-anginal drug that inhibits the late sodium current (INa) in cardiomyocytes. Late INa is increased during conditions of ischemia and hypoxia, and causes intracellular Ca^2+ overload by increasing the amount of intracellular Na^+ available for exchange via the Na^+—Ca^2+ exchanger (NCX). […] Monocrotaline or MCT (a poisonous crystalline alkaloid found in a leguminous plant of the genus Crotalaria) induces progressive pulmonary arterial hypertension (PAH) in rats that results in RV hypertrophy, contractile dysfunction, and eventually RV failure. Both human PAH and MCT-induced PAH models are characterized by hypoxia and increased ROS production but the role of late INa in this model has not been investigated. Therefore, the present example evaluates the efficacy of RAN to prevent MCT-induced PAH and RV dysfunction. Male Sprague-Dawley rats were given a single injection of MCT (60 milligrams per kilogram, s.c.) at study inception and randomized into three groups; MCT, low dose RAN (0.25% weight of RAN over weight of chow), and high dose (0.5% weight of RAN over weight of chow) RAN. RAN was given in diet for 28 days mixed in standard rodent chow containing 0.25% or 0.5% RAN for low and high doses, respectively. These concentrations of RAN yielded plasma concentrations of 1-2 micromolar and 5-7 micromolar, respectively. A control group received a sub-cutaneous (s.c.) saline injection and was fed standard rodent chow. Pulmonary hemodynamics, RV function, and RV hypertrophy was assessed at endpoint (day 28 following MCT administration). Alpha-smooth muscle actin (α-SMA) staining on lung tissue sections were carried out to assess pulmonary vascular remodeling at day 28 as well."}, "[2]": {"test": "Plasma concentration of RAN given in diet to rats", "type": "in vivo", "details": "male, Sprague-Dawley, oral, rat, read-out: plasma concentrations", "excerpt": "Male Sprague-Dawley rats were given a single injection of MCT (60 milligrams per kilogram, s.c.) at study inception and randomized into three groups; MCT, low dose RAN (0.25% weight of RAN over weight of chow), and high dose (0.5% weight of RAN over weight of chow) RAN. RAN was given in diet for 28 days mixed in standard rodent chow containing 0.25% or 0.5% RAN for low and high doses, respectively. These concentrations of RAN yielded plasma concentrations of 1-2 micromolar and 5-7 micromolar, respectively. A control group received a sub-cutaneous (s.c.) saline injection and was fed standard rodent chow. Pulmonary hemodynamics, RV function, and RV hypertrophy was assessed at endpoint (day 28 following MCT administration). Alpha-smooth muscle actin (α-SMA) staining on lung tissue sections were carried out to assess pulmonary vascular remodeling at day 28 as well."}, "[3]": {"tested_on": "right ventricular remodeling following acute myocardial infarction", "test": "Murine model of large anterior wall acute myocardial infarction (permanent ligation of the left coronary artery)", "type": "in vivo, Male Imprinting Control Region (ICR) mice", "details": "30 mg/kg i.p. every 6 hours for 7 days", "method": "Male Imprinting Control Region (ICR) mice underwent permanent coronary artery ligation of the left coronary artery and treated with vehicle (saline) or ranolazine 30 mg/kg i.p. every 6 hours (N=10-12 per group) for 7 days starting at the time of ligation. Infarct size was measured early using Masson's trichrome staining. Transthoracic echocardiography was performed prior to surgery and 7 days later to measure left ventricular and right ventricular dimensions and function."}, "[4]": {"tested_on": "pulmonary hypertension or PAH", "test": "Right ventricular function, exercise capacity and quality of life in patients with pulmonary hypertension or PAH", "type": "in vivo", "details": "contemplated result", "excerpt": "To ascertain the improvement in right ventricular function in patients suffering from pulmonary hypertension or pulmonary arterial hypertension (PAH), the following parameters are examined: • Exercise capacity and quality of life • RV subendocardial perfusion using adenosine cardiac MRI studies • Exercise-induced changes in RV function determined non-invasively using comprehensive Doppler and tissue Doppler echocardiography along with determination of right ventricular—pulmonary vascular coupling and pulmonary vascular impedance spectra • RV contractility and comprehensive pressure-volume analysis using invasive hemodynamics, 2D and 3D echocardiography, and cardiac MRI Note that the aforementioned endpoints use a combination of invasive and non-invasive techniques. Echocardiography techniques are best suited for exercise studies. Echocardiographic RV volume data can be normalized to MRI RV volume data, and echocardiographic estimation of RV pressures can be normalized to invasive RV pressure data, thereby increasing the accuracy of echocardiographic analysis of RV structure and function."}, "[5]": {"details": "high dose RAN (0.5% in chow), day 28 after MCT"}, "[6]": {"details": "echocardiography at day 7, versus vehicle-treated mice"}},
  "note": "Where two headings read alike, the source gives them in different places.",
  "data": [
    {"smiles": "COc1ccccc1OCC(O)CN1CCN(CC(=O)Nc2c(C)cccc2C)CC1", "note": "(racemic) [ranolazine, ±-N-(2,6-dimethylphenyl)-4-[2-hydroxy-3-(2-methoxyphenoxy)-propyl]-1-piperazineacetamide]", "values": [
      {"measurement": "MCT induced changes (PAH and RV dysfunction), overall", "setting": "[1]; 0.25% and 0.5% RAN in chow, 28 days", "result": "significantly and dose-dependently attenuated"},
      {"measurement": "RV hypertrophy, RV(milligrams)/LV(milligrams)", "setting": "[1]; high dose RAN (0.5% in chow)", "result": "0.32±0.03"},
      {"measurement": "plasma BNP levels", "setting": "[1]; high dose RAN (0.5% in chow)", "result": "60±20", "unit": "picograms/milliliter"},
      {"measurement": "decrease in RV ejection fraction", "setting": "[1]; high dose RAN (0.5% in chow)", "result": "−10±8", "unit": "%"},
      {"measurement": "pulmonary systolic pressure", "setting": "[1]; [5]", "result": "40±4", "unit": "millimeters Hg"},
      {"measurement": "RV systolic pressure", "setting": "[1]; [5]", "result": "39±4", "unit": "millimeters Hg"},
      {"measurement": "RV hypertrophy, RV(milligrams)/LV(milligrams)", "setting": "[1]; low dose RAN (0.25% in chow)", "result": "0.4±0.03"},
      {"measurement": "plasma BNP levels", "setting": "[1]; low dose RAN (0.25% in chow)", "result": "180±30", "unit": "picograms/milliliter"},
      {"measurement": "decrease in RV ejection fraction", "setting": "[1]; low dose RAN (0.25% in chow)", "result": "−17±11", "unit": "%"},
      {"measurement": "pulmonary systolic pressure", "setting": "[1]; low dose RAN (0.25% in chow), day 28 after MCT 60 mg/kg s.c.", "result": "59±5", "unit": "millimeters Hg"},
      {"measurement": "RV systolic pressure", "setting": "[1]; low dose RAN (0.25% in chow), day 28 after MCT", "result": "58±5", "unit": "millimeters Hg"},
      {"measurement": "pulmonary vascular remodeling in intra-acinar arteries (ratio of vessel wall thickness to lumen diameter)", "setting": "[1]; α-SMA staining of lung sections, day 28, compared to MCT animals", "result": "significantly reduced remodeling"},
      {"measurement": "concentration at 28 days", "setting": "[2]; 0.25 % weight of RAN over weight of chow, low dose RAN, 0.25% in chow", "result": "1 to 2", "unit": "µM"},
      {"measurement": "concentration at 28 days", "setting": "[2]; 0.5 % weight of RAN over weight of chow, high dose RAN, 0.5% in chow", "result": "5 to 7", "unit": "µM"},
      {"measurement": "infarct size", "setting": "[3]; Masson's trichrome staining", "result": "absence of any measurable effects"},
      {"measurement": "LV function and dimension", "setting": "[3]; echocardiography at day 7", "result": "absence of any measurable effects"},
      {"measurement": "RV dimension (RV diastolic and systolic areas)", "setting": "[3]; [6]", "result": "significant preservation"},
      {"measurement": "RV function (TAPSE and RV fractional area change)", "setting": "[3]; [6]", "result": "significant preservation"},
      {"measurement": "exercise capacity and quality of life", "setting": "[4]", "result": "improve exercise capacity and quality of life"},
      {"measurement": "pain associated with pulmonary hypertension or PAH", "setting": "[4]", "result": "ameliorates pain"}
    ]}
  ]
}
